# Counter-ions that a name gives are not always drawn.
# System: anti-MTBE antibody prepared in Example 1 (anti-MTBE/7-methoxy-3,7-dimethyloctanal antibody)
# Assay: Anti-MTBE monoclonal antibody cross-reactivity, indirect competitive ELISA
# Assay type: binding
# Details: for IC50 (concentration of analyte required to inhibit the maximum assay signal B0 by 50%): B/B0=50%, read from FIG. 4
SMILES,IC50 (concentration of analyte required to inhibit the maximum assay signal B0 by 50%),cross-reactivity of the antibody (FIG. 4)
"CCC(C)(C)OC [TAME, methyl tert-amyl ether]",~10 µg/mL,
"COC(C)(C)C [MTBE, methyl tert-butyl ether]",~10 µg/mL,
CO [methanol],,no significant cross-reactivity
"CC(C)(C)OC=O [TBF, tert-butyl formate]",~60 µg/mL,
"CC(C)(C)O [TBA, tert-butyl alcohol]",~180 µg/mL,

# — patent US20070020713A1, “Antibodies to the fuel oxygenate mtbe and use thereof in immunoassays” (priority 2003, published 2007)
